# Values of other authors, collected in PubChem BioAssay AID1259409 (Chemical Carcinogenesis Research Information System (CCRIS), 2018).
# Tested on: rodent chemically induced tumor inhibition, incidence and multiplicity
# Test: CCRIS tumor inhibitor studies
# Details: Route [Inhibitor]: ORAL, Species: RAT, Strain/Sex: F344/MALE, Promoter: NONE USED
smiles,measurement,setting,value
O=C1O[C@H]([C@@H](O)CO)C(O)=C1O,"tumour outcome (control, treated, inhibition, significance)","Carcinogen: N-BIS(2-HYDROXYPROPYL)NITROSAMINE, 53609-64-6, Dose [Inhibitor]: 0, 5% IN DIET FOR 30 WK BEGINNING POST CARCINOGEN TREATMENT (STUDY DURATION: 32 WK), Target Tissue: Type of Lesion: BLADDER: ADENOMA, Dose [Carcinogen]: 0.1% IN DRINKING WATER FOR 2 WK","5%, 10%, -100%, not calculated"
same,"tumour outcome (control, treated, inhibition, significance)","Carcinogen: N-BIS(2-HYDROXYPROPYL)NITROSAMINE, 53609-64-6, Dose [Inhibitor]: 0, 5% IN DIET FOR 30 WK BEGINNING POST CARCINOGEN TREATMENT (STUDY DURATION: 32 WK), Target Tissue: Type of Lesion: KIDNEY: TUMOR, Dose [Carcinogen]: 0.1% IN DRINKING WATER FOR 2 WK","10%, 30%, -200%, not calculated"
same,"tumour outcome (control, treated, inhibition, significance)","Carcinogen: N-BIS(2-HYDROXYPROPYL)NITROSAMINE, 53609-64-6, Dose [Inhibitor]: 0, 5% IN DIET FOR 30 WK BEGINNING POST CARCINOGEN TREATMENT (STUDY DURATION: 32 WK), Target Tissue: Type of Lesion: LUNG: ADENOMA, Dose [Carcinogen]: 0.1% IN DRINKING WATER FOR 2 WK","100%, 100%, 0%, not significant"
same,"tumour outcome (control, treated, inhibition, significance)","Carcinogen: N-BIS(2-HYDROXYPROPYL)NITROSAMINE, 53609-64-6, Dose [Inhibitor]: 0, 5% IN DIET FOR 30 WK BEGINNING POST CARCINOGEN TREATMENT (STUDY DURATION: 32 WK), Target Tissue: Type of Lesion: LUNG: CARCINOMA, Dose [Carcinogen]: 0.1% IN DRINKING WATER FOR 2 WK","45%, 20%, 56%, not calculated"
same,"tumour outcome (control, treated, inhibition, significance)","Carcinogen: N-BIS(2-HYDROXYPROPYL)NITROSAMINE, 53609-64-6, Dose [Inhibitor]: 0, 5% IN DIET FOR 30 WK BEGINNING POST CARCINOGEN TREATMENT (STUDY DURATION: 32 WK), Target Tissue: Type of Lesion: THYROID: ADENOMA, Dose [Carcinogen]: 0.1% IN DRINKING WATER FOR 2 WK","5%, 30%, -500%, not calculated"
same,"tumour outcome (control, treated, inhibition, significance)","Carcinogen: N-BIS(2-HYDROXYPROPYL)NITROSAMINE, 53609-64-6, Dose [Inhibitor]: 0, 5% IN DIET FOR 30 WK BEGINNING POST CARCINOGEN TREATMENT (STUDY DURATION: 32 WK), Target Tissue: Type of Lesion: THYROID: CARCINOMA, Dose [Carcinogen]: 0.1% IN DRINKING WATER FOR 2 WK","20%, 10%, 50%, not calculated"
same,"tumour outcome (control, treated, inhibition, significance)","Carcinogen: N-BUTYL-N-(4-HYDROXYBUTYL)NITROSAMINE, 3817-11-6, Dose [Inhibitor]: 4.45% IN BASAL DIET ADMINISTERED SIMULTANEOUSLY WITH CARCINOGEN DOSE FOR 20 WK (STUDY DURATION: 20 WK), Target Tissue: Type of Lesion: BLADDER: CARCINOMA, Dose [Carcinogen]: 0.025% IN DRINKING WATER FOR 20 WK","3/15 (20%), 6/14 (43%), -115%, not calculated"
same,"tumour outcome (control, treated, inhibition, significance)","Carcinogen: N-BUTYL-N-(4-HYDROXYBUTYL)NITROSAMINE, 3817-11-6, Dose [Inhibitor]: 4.45% IN BASAL DIET ADMINISTERED SIMULTANEOUSLY WITH CARCINOGEN DOSE FOR 20 WK (STUDY DURATION: 20 WK), Target Tissue: Type of Lesion: BLADDER: PAPILLOMA, Dose [Carcinogen]: 0.025% IN DRINKING WATER FOR 20 WK (FOR A TOTAL INTAKE OF 4.0 MMOL/RAT)","4/15 (27%), 4/14 (29%), -7%, not calculated"
same,"tumour outcome (control, treated, inhibition, significance)","Carcinogen: N-BUTYL-N-(4-HYDROXYBUTYL)NITROSAMINE, 3817-11-6, Dose [Inhibitor]: 5% DIET DAILY FOR 34 WK BEGINNING POST CARCINOGEN TREATMENT (STUDY DURATION: 38 WK), Target Tissue: Type of Lesion: URINARY BLADDER: PAPILLOMA, Dose [Carcinogen]: 0.01% IN DRINKING WATER FOR 4 WK","33%, 21%, 36%, not significant"
same,"tumour outcome (control, treated, inhibition, significance)","Carcinogen: N-BUTYL-N-(4-HYDROXYBUTYL)NITROSAMINE, 3817-11-6, Dose [Inhibitor]: 5% IN BASAL DIET ADMINISTERED SIMULTANEOUSLY WITH CARCINOGEN DOSE FOR 20 WK (STUDY DURATION: 20 WK), Target Tissue: Type of Lesion: BLADDER: CARCINOMA, Dose [Carcinogen]: 0.025% IN DRINKING WATER FOR 20 WK","3/15 (20%), 6/15 (40%), -100%, not calculated"
same,"tumour outcome (control, treated, inhibition, significance)","Carcinogen: N-BUTYL-N-(4-HYDROXYBUTYL)NITROSAMINE, 3817-11-6, Dose [Inhibitor]: 5% IN BASAL DIET ADMINISTERED SIMULTANEOUSLY WITH CARCINOGEN DOSE FOR 20 WK (STUDY DURATION: 20 WK), Target Tissue: Type of Lesion: BLADDER: PAPILLOMA, Dose [Carcinogen]: 0.025% IN DRINKING WATER FOR 20 WK (FOR A TOTAL INTAKE OF 4.7 MMOL/RAT)","4/15 (27%), 2/15 (13%), 50%, not significant"
same,"tumour outcome (control, treated, inhibition, significance)","Carcinogen: N-ETHYL-N-(4-HYDROXYBUTYL)NITROSAMINE, 54897-62-0, Dose [Inhibitor]: 4.45% IN BASAL DIET ADMINISTERED SIMULTANEOUSLY WITH CARCINOGEN DOSE FOR 20 WK (STUDY DURATION: 20 WK), Target Tissue: Type of Lesion: BLADDER: CARCINOMA, Dose [Carcinogen]: 0.021% IN DRINKING WATER FOR 20 WK","13/15 (87%), 14/15 (93%), -8%, not calculated"
same,"tumour outcome (control, treated, inhibition, significance)","Carcinogen: N-ETHYL-N-(4-HYDROXYBUTYL)NITROSAMINE, 54897-62-0, Dose [Inhibitor]: 4.45% IN BASAL DIET ADMINISTERED SIMULTANEOUSLY WITH CARCINOGEN DOSE FOR 20 WK (STUDY DURATION: 20 WK), Target Tissue: Type of Lesion: BLADDER: PAPILLOMA, Dose [Carcinogen]: 0.021% IN DRINKING WATER FOR 20 WK","14/15 (93%), 15/15 (100%), -7%, not calculated"
same,"tumour outcome (control, treated, inhibition, significance)","Carcinogen: N-ETHYL-N-(4-HYDROXYBUTYL)NITROSAMINE, 54897-62-0, Dose [Inhibitor]: 5% IN BASAL DIET ADMINISTERED SIMULTANEOUSLY WITH CARCINOGEN DOSE FOR 20 WK (STUDY DURATION: 20 WK), Target Tissue: Type of Lesion: BLADDER: CARCINOMA, Dose [Carcinogen]: 0.021% IN DRINKING WATER FOR 20 WK","13/15 (87%), 13/15 (87%), 0%, not significant"
